# Tests used:
# [1] = test system: THP-1 macrophages; test: Cytokine secretion ELISA, LPS-stimulated differentiated THP-1 cells; format: cell-based, human; conditions: for release of TNF-α by LPS-stimulated THP-1 cells / secretion of IL-1β by LPS-stimulated THP-1 cells: comparison RTD-1 versus marimastat
# Experimental: (§1) THP-1 monocytes (ATCC, Manassas, Va.) were cultured in RPMI 1640+10% FBS and penicillin/streptomycin (P/S). THP-1 Dual cells (Invivogen, San Diego, Calif.) which express the NF-κB reporter, secreted embryonic alkaline phosphatase (SEAP), were grown in RPMI 1640+10% HI-FBS and antibiotics. THP-1 cell differentiation was induced by treatment of cells (˜3.3×10^5 cells/ml) with 100 nM PMA and cultured for 2 days. HEK-Blue™ hTLR9 cells (Invivogen) were grown in DMEM medium containing 10% HI-FBS, P/S and normocin. Cells were cultured at 37° C. in 5% CO2. Cytokine assays. PMA-differentiated THP-1 cells (˜8×10^5 cells) cultured in 6-well plates were washed twice with complete medium and grown in fresh medium containing 1% FBS for 24 hours. Cells were washed twice with fresh medium and incubated for 2 hours prior to further manipulation. Cells were stimulated with 100 ng/ml LPS in the presence or absence of 10 μg/ml RTD-1 or vehicle (0.01% acetic acid) for 2 hours. In some experiments, cells were first incubated for 1 hour with 10 μg/ml of marimastat or vehicle (DMSO), after which LPS and/or RTD-1 were added and incubated for 2 hours as above. Peripheral blood CD14+ monocytes (Lonza, Walkersville, Md.) were thawed, rinsed with RPMI 1640 containing 10% HI FBS, P/S and normocin and then resuspended in RPMI 1640 containing 1% HI FBS plus antibiotics as above (10^6 cells/nil) for 2 hours. The cells were then stimulated for 4 hours as described in the legend. Medium was collected, clarified by centrifugation first at 250×g for 8 minutes and then at 5000×g for 5 minutes. TNF-α, IL-1β and IL-8 were quantified by ELISA (Life Technologies, Carlsbad, Calif.).
# [2] = test system: primary human monocytes; test: Cytokine secretion ELISA, LPS-stimulated primary human monocytes; format: cell-based; conditions: LPS 20 ng/ml, 4 hours, RTD-1 10 μg/ml
# Experimental: as §1
# [3] = test system: THP-1 cells; test: Real time quantitative PCR of cytokine mRNA, LPS-stimulated THP-1 cells; format: cell-based, human
# Experimental: Differentiated THP-1 cells were treated with LPS and RTD-1 for 2 hours as above, washed with PBS and RNA was isolated using an RNA mini kit (Zymo Research, Irvine, Calif.) or with RNeasy mini kit (Qiagen, Valencia, Calif.). RNA integrity was confirmed on agarose gels and RNA samples with A260/280 and A260/230 ratios ≧1.7 were used to generate cDNA. Briefly, 400 ng RNA was incubated with genomic DNA (gDNA) elimination (GE) buffer for 5 minutes at […]. and reverse transcribed using the RT^2 first strand synthesis kit (Qiagen). Custom PCR arrays (SA Biosciences, Frederick, Md.) containing human genes of interest and controls (for reverse transcriptase and PCR efficiency, RTC and PPC respectively) were used for simultaneous real time PCR analysis. Master mix containing cDNA and RT^2 SYBR Green™ was added to array wells. PCR cycling parameters were: 1 cycle 10 minutes at 95° C., 40 cycles of 15 seconds at 95° C., 1 minute at 60° C. on a BioRad C1000 Thermal Cycler equipped with a CFX96 real time system. Melting curve analysis confirmed a single amplicon with CT PPC=20±2 and ACT (RTC-PPC)<5 for all samples. The ACTB gene was used for normalization of gene expression and fold stimulation (compared to untreated cells) was calculated using the ΔΔCT method. Absence of gDNA in cDNA samples (CT>35) was confirmed using a human gDNA primer (SA Biosciences).
# [4] = test system: NF-κB; test: NF-κB activity assay (SEAP reporter, Quantiblue) in THP-1 Dual cells; format: cell-based, human; conditions: for LPS-stimulated NF-κB activation: comparison RTD-1 versus marimastat, RTD-1 in the presence or absence of marimastat
# Experimental: (§2) One ml aliquots of PMA-differentiated THP-1 Dual cells (3.3×10^5 cells/nil) in 24 well tissue culture plates were starved for 1 day in complete medium with 1% HI FBS as described above. For experiments with S7 peptide, 0.5 ml cultures in 48 well plates were used. Fresh medium containing 1% HI FBS was added to the cells and after 2 hours cells were stimulated with 100 ng/ml LPS or 25 ng/ml Pam3CSK4 in the presence of RTD-1 or 0.01% acetic acid (HOAc, vehicle). In some experiments cells were pre-incubated with marimastat, Ly294002 or vehicle for 1 hour prior to addition of LPS and/or RTD-1 (SEQ ID NO. 1). Following overnight incubation, medium was clarified by centrifugation and SEAP activity was determined using Quantiblue reagent at 37° C. and measurement of absorbance at 625 nm. To test the effect of RTD-1 on TLR9-dependent NF-κB activation, 2×10^5 HEK-Blue™ hTLR9 cells/ml were cultured for 1 day in 24 well plates and stimulated overnight with ODN2006 with or without RTD-1. Medium was harvested and SEAP activity was assayed using Quantiblue™ as above. NF-κB activation was defined as fold stimulation of SEAP activity with respect to control cells.
# [5] = test system: TLR9-dependent NF-κB activation; test: TLR9-dependent NF-κB activation (SEAP) in HEK-Blue hTLR9 cells; format: cell-based, human; conditions: ODN2006, RTD-1 10 μg/ml
# Experimental: as §2
# [6] = test system: NF-κB p65; test: NF-κB DNA-binding activity (p65 ELISA) in THP-1 nuclear extracts; format: cell-based, human
# Experimental: Nuclear extracts were prepared (nuclear extraction kit; Cayman Chemical Co., Ann Arbor, Mich.) from differentiated THP-1 cells treated for 30 minutes with vehicle, LPS (100 ng/ml) or TNF-α (2 ng/ml) in the presence or absence of 10 μg/ml RTD-1 (SEQ ID NO. 1). NF-κB DNA binding was quantified by p65 ELISA (Cayman Chemical Co.). Non-specific DNA-binding, positive control extract and positive control extract treated with competitor DNA control included with the ELISA were used to confirm specificity of DNA-binding.
# [7] = test system: THP-1 cells; test: Immunoblot analyses of THP-1 cell extracts; format: cell-based, human
# Experimental: (§3) Differentiated THP-1 cells (˜8×10^5 cells/2.5 ml medium) were starved in complete medium containing […] for 1 day as above, and fresh 2.5 ml RPMI 1640+1% FBS+P/S was added for 2 hours. For experiments with fresh monocytes, cells (>80% CD14+) were resuspended (˜10^6 cells/nil) in monocyte attachment medium (Promocell, Heidelberg, Germany) in wells of a 12 well plate for 2 hours at 37° C. in 5% CO2. The cells were then washed two times with RPMI medium containing 1% HI FBS and suspended overnight in RPMI medium containing 1% HI FBS. Cells were stimulated with agonists with or without RTD-1 (SEQ ID NO. 1) as described in the figure legends after which cells were washed with PBS and extracts were prepared in cell lysis buffer+1 mM PMSF. Protein content was determined using the BCA method (BioRad, San Diego, Calif.) and extracts resolved on SDS-tricine gels and transferred to nitrocellulose membrane. The membranes were probed with the indicated antibodies and developed using anti-mouse or anti-rabbit HRP conjugated secondary antibodies and detected by chemiluminescence. A phosphoprotein antibody array (Phospho-MAPK™; R&D systems Minneapolis, Minn.) was used to analyze activation of phosphoprotein kinases. Differentiated THP-1 cells (1.6×10^6 cells) were treated with 100 ng/ml LPS, 10 μg/ml RTD-1 (SEQ ID NO. 1), 100 ng/ml LPS+10 μg/ml RTD-1, or vehicle for 30 minutes. Arrays were probed with 200 μg of cell extract protein and chemiluminescence of spots from arrays or bands from western blotting was quantified using NIH ImageJ software, background subtracted, normalized and plotted.
# [8] = test system: THP-1 cells; test: Phospho-MAPK phosphoprotein antibody array, THP-1 cells; format: cell-based, human
# Experimental: as §3
# [9] = test system: primary human monocytes; test: Immunoblot analyses of primary human monocyte extracts; format: cell-based
# Experimental: EDTA-anticoagulated blood was incubated with human monocyte enrichment cocktail (Stem Cell Technologies, Vancouver, BC, Canada) for 20 minutes and layered on Ficoll Paque™ in a Sepmate™ 50 tube (Stem Cell Tech). The cells were centrifuged at 1200×g for 10 minutes and the monocyte containing layer of cells was isolated, washed with PBS containing 2% HI FBS and 1 mM EDTA.
# as §3
# [10] = test system: peripheral blood leukocytes; test: Cytokine secretion by peripheral blood leukocytes stimulated with TLR agonists; format: cell-based, human; conditions: stimulated by agonists of TLRs 2, 4, 5, and 8
# [11] = test system: whole blood; test: TNF-α secretion by E. coli stimulated whole blood; format: cell-based
# [12] = Binding to LPS
# [13] = test system: peripheral blood leukocytes; conditions: human peripheral blood leukocytes, diverse TLR agonists (Schaal et al 2012); cited from earlier work
# [14] = test system: inflammatory cytokines; conditions: mouse models; cited from earlier work
# [15] = LPS 100 ng/ml, 2 hours, RTD-1 10 μg/ml, THP-1 macrophages
# [16] = LPS 100 ng/ml, RTD-1 10 μg/ml, 2 hours
# [17] = LPS 100 ng/ml, RTD-1 10 μg/ml, 30 minutes
# [18] = LPS 100 ng/ml + RTD-1 10 μg/ml, 30 minutes
compound,measurement,setting,value
"RTD-1: rhesus theta-defensin 1, macrocyclic tri-disulfide θ-defensin peptide, SEQ ID NO. 1, synthetic (cyclo(GFCRCLCRRGVCRCICTR); disulfide (positions not given here); not fully specified (bridges); also: three disulfides, places not given here; listed as Macaca mulatta)",suppression of secretion of IL-1β,[1]; [15],> 90%
same,suppression of secretion of IL-8,[1]; [15],> 90%
same,suppression of secretion of TNF-α,[1]; [15],> 90%
same,release of TNF-α by LPS-stimulated THP-1 cells,[1]; LPS 100 ng/ml,blocked both cytokines effectively
same,secretion of IL-1β by LPS-stimulated THP-1 cells,[1]; LPS 100 ng/ml,blocked both cytokines effectively
same,effect on THP-1 cytokine secretion,"[1]; RTD-1 alone, no LPS",no effect
same,suppression of secretion of IL-1β,[2],> 90%
same,suppression of secretion of IL-8,[2],> 90%
same,suppression of secretion of TNF-α,[2],> 90%
same,LPS-induced mRNA expression of CCL3,[3]; [16],markedly inhibited
same,LPS-induced mRNA expression of CCL4,[3]; [16],markedly inhibited
same,LPS-induced mRNA expression of IL-1β,[3]; [16],markedly inhibited
same,LPS-induced mRNA expression of IL-8,[3]; [16],markedly inhibited
same,LPS-induced mRNA expression of TNF-α,[3]; [16],markedly inhibited
same,expression of GAPDH,[3]; addition of RTD-1,no effect
same,cytokine mRNA expression,"[3]; peptide alone, no LPS",no effect
same,dose dependence of inhibition of NF-κB activation,"[4]; LPS 100 ng/ml, RTD-1 5 and 10 μg/ml",dose dependent
same,LPS-stimulated NF-κB activation,[4]; LPS 100 ng/ml,potent inhibitor
same,suppression of LPS-induced NF-κB activation,"[4]; LPS 100 ng/ml, simultaneous RTD-1 10 μg/ml, THP-1 Dual cells",~70%
same,direct effect on the enzymatic activity of the SEAP reporter,[4]; LPS/RTD-1 control,no direct effect
same,inhibition of Pam3CSK4-induced NF-κB activity,"[4]; Pam3CSK4 25 ng/ml, RTD-1 10 μg/ml",~70%
same,effect on NF-κB activation,"[4]; RTD-1 alone, no LPS",no effect
same,suppression of ODN2006-mediated NF-κB activation,[5],to baseline levels
same,"NF-κB DNA binding, LPS-stimulated",[6]; [17],to baseline levels
same,translocation of NF-κB p65 to the nucleus,"[6]; LPS stimulated macrophages, Western blot of nuclear extracts",inhibit translocation
same,suppression of TNF-α-stimulated NF-κB DNA binding,"[6]; TNF-α 2 ng/ml, RTD-1 10 μg/ml, 30 minutes, compared with TNF-α alone",~35%
same,JNK1/2 kinase phosphorylation,"[7]; LPS 100 ng/ml, RTD-1 10 μg/ml",inhibition
same,degradation of IκBα in LPS stimulated macrophages,"[7]; LPS 100 ng/ml, RTD-1 10 μg/ml",effective in blocking
same,p38 MAP kinase phosphorylation,"[7]; LPS 100 ng/ml, RTD-1 10 μg/ml",inhibition
same,P-Akt levels remained elevated,"[7]; RTD-1 10 μg/ml alone, for at least 4 hours",~2.5 fold
same,increase in P-Akt,"[7]; RTD-1 10 μg/ml alone, within 10 minutes of peptide treatment",6.5 fold
same,IκBα levels and phosphorylation of p38 MAP and JNK1/2 kinases,[7]; RTD-1 alone,no effect
same,LPS-induced phosphorylation of CREB,[8]; [18],to baseline levels
same,LPS-induced phosphorylation of ERK2,[8]; [18],to baseline levels
same,LPS-induced phosphorylation of H5P27,[8]; [18],to baseline levels
same,LPS-induced phosphorylation of JNK2,[8]; [18],to baseline levels
same,LPS-induced phosphorylation of p38α,[8]; [18],to baseline levels
same,LPS-induced phosphorylation of p38γ,[8]; [18],to baseline levels
same,"phosphorylation of CREB, ERK2, H5P27, JNK2, p38α and p38γ",[8]; RTD-1 alone,did not suppress
same,phosphorylation of Akt1,[8]; RTD-1 alone or in combination with LPS,selectively stimulated
same,baseline phosphorylation of other kinase targets,"[8]; RTD-1 alone, otherwise untreated cells",did not increase
same,degradation of IκBα in LPS stimulated monocytes,[9]; [17],reduced
same,p38 MAP kinase phosphorylation in LPS stimulated monocytes,[9]; [17],inhibited
same,degradation of IκBα,"[9]; RTD-1 alone, monocytes",did not induce
same,phosphorylation of Akt,"[9]; monocytes treated with LPS and RTD-1 or RTD-1 alone, compared to control cells",increased phosphorylation
same,p38 MAP kinase phosphorylation,"[9]; peptide alone, monocytes",no effect
same,secretion of several inflammatory cytokines,[10],suppressed secretion
same,speed of blockade of TNF-α secretion,[11],extremely rapid
same,binding to LPS,[12],binds inefficiently
same,inhibition of cytokine secretion,[13],potent inhibitor
same,"inflammatory cytokines, including TNF-α, IL-1β and several chemokines",[14],reduce inflammatory cytokines
HNP-1: human neutrophil α-defensin HNP-1 purified from neutrophils [reference compound],inhibition of NF-κB activity,"[4]; LPS 100 ng/ml, equimolar concentrations used in place of RTD-1",no inhibition
"CNC(=O)[C@@H](NC(=O)[C@H](CC(C)C)[C@H](O)C(=O)NO)C(C)(C)C [marimastat, reference compound]",release of TNF-α by LPS-stimulated THP-1 cells,[1]; LPS 100 ng/ml,efficiently blocked
same,secretion of IL-1β by LPS-stimulated THP-1 cells,[1]; LPS 100 ng/ml,did not affect
same,LPS-stimulated NF-κB activation,[4]; LPS 100 ng/ml,no effect

# From patent US20170035845A1, “Compositions and Methods for Inhibiting Pro-Inflammatory Cytokine Gene Expression” (The Regents of the University of California, priority 2015, published 2017)
